Measurements as given in patent US12151021B2, “Implantable nanochannel delivery devices” (THE METHODIST HOSPITAL SYSTEM, priority 2015, dated 2024).
Structures can show the parent of a compound that is named as a salt. Where two headings read alike, the source gives them in different places.

Tests used:
[1] = Doxorubicin release in vitro from nanochannel capsules (UV-Vis at 479 nm); assay type: physicochemical; conditions: in 4 days; capsules with 20 nm nanochannels, loading solution 0.58 mg/ml, 23 °C, n=5
Experimental: Doxorubicin loaded nanochannel capsules (n=5) were immersed in 400 μl of Millipore water in microvolume spectroscopy cuvettes sealed with tight-fitting lids. Absorbance measures were taken every 10 min for 9 days at 479 nm by a custom-built robotic carousel (Quantum Northwest, Inc.) connected to a UV-Vis spectrophotometer (Cary 50, Agilent Technologies, Inc.). The 479 nm wavelength was selected as optimal for doxorubicin with this system by prior full spectrum analysis. The cuvettes were maintained at 23±0.3° C. for the duration of the experiment. Data were normalized with respect to a Millipore water blank, and the cumulative release of the agents was obtained through comparison to a standard curve.
The nanochannel capsules were loaded with Doxorubicin and placed in isotonic conditions in vitro to characterize their release kinetics. The nanochannel capsules were immersed in PBS within microvolume cuvettes, which were sealed with tight-fitting lids. Release into the sink solution was measured via absorbance measurements at 479 nm by a robotic 48-cell carousel (Quantum Northwest, Inc.) linked to a UV-Vis Spectrophotometer (Cary 50, Agilent Technologies, Inc.). Overall drug release was evaluated via comparison of measured absorbances to standard curves following normalization with respect to initial conditions (t=0).

[2] = set-up: species or system C57B16 mice; conditions: mouse, in vivo
Experimental: All animal procedures described herein followed IACUC protocols approved by their requisite institutions. C57B16 mice were implanted with 10^6 melanoma cells (B16F10) in the upper thigh (n=5). Once tumors reached 12 mm in its longer axis, sterile nanochannel implants loaded with 470 mg/ml of Magnevist were percutaneously implanted into the tumors with a 15 G, percutaneous trocar at a 90°angle from the axial axis of the tumor. Briefly, rodents were anesthetized with 3% isofluorane and immobilized within a sterile field. The percutaneous implantation site was cleaned with chlorhexidine and 70% ethanol and all nearby hair was shaved. The trocar was inserted to the target depth of approximately 5 mm. The nanochannel capsule was extruded through manual pressure with the obturator and the trocar was removed. A single drop of bupivicaine was added to the implantation site. The implantation site was closed with suture to ensure implant immobility and restrict animal agitation of the site. The mice had secondary heating maintained throughout the procedure and until they recovered from anesthesia.
For the in vivo MR imaging, T1- and T2-weighted images were acquired axially with respect to the laboratory frame of reference on a 7 T Bruker BioSpec Scanner (Bruker Biospin, Billerica, MA, USA). […]

[3] = Magnevist release in vitro from PEEK nanochannel capsules (MR T1 mapping); assay type: physicochemical; conditions: at plateau beginning by Day 3; 47 mg/ml loading, PBS, 37 °C, n=4; approximation based on loading concentration
Experimental: The drug eluting fiducial markers were loaded with a number of different molecules to examine release kinetics into simulated physiological solution in vitro. In a series of experiments, the implants were loaded with ˜2.5 μL of OX86, FGK45, or Magnevist, placed in a 70 μL cuvette, and immersed in PBS. The cuvettes were sealed with tight-fitting lids and kept in an incubator at 37° C. The PBS solution was sampled and replaced daily. The OX86 and FGK45 release was quantified by micro-BCA assay (Sigma-Aldrich). The Magnevist was quantified through MR scanning. (7 T magnet, cut-down 96-well plate in a wrist coil). An additional experiment for quantifying IgG release was conducted similarly, but at room temperature and quantified via UV-Vis spectroscopy at 280 nm sampled every 10 minutes.
PEEK nanochannel capsules loaded with Magnevist (n=4) were immersed in 500 μl of PBS in microvolume cuvettes sealed with tight-fitting lids. These microvolume cuvettes were then placed in a 37° C. incubator. The 500 μl of sink solution were sampled and replaced daily for 7 days. The sink samples were stored at 4° C. Magnevist concentration within the samples was quantified through MR imaging of the samples within a custom-built 49 well plate (7×7) with 300 μl well volumes. […]

[4] = from BioNumbers (Milo et al.), cited from earlier work

Q: With COc1cccc2c1C(=O)c1c(O)c3c(c(O)c1C2=O)C[C@@](O)(C(=O)CO)C[C@@H]3O[C@H]1C[C@H](N)[C@H](O)[C@H](C)O1 [Doxorubicin, Doxorubicin hydrochloride salt] as the molecule, how does the “release depleted fraction of the reservoir volume” value [1] read?
A: around 80%

Q: Which results are given for CNC[C@H](O)[C@@H](O)[C@H](O)[C@H](O)CO.CNC[C@H](O)[C@@H](O)[C@H](O)[C@H](O)CO.O=C([O-])CN(CCN(CC(=O)[O-])CC(=O)O)CCN(CC(=O)[O-])CC(=O)O.[Gd+3] [Magnevist, gadopentetate dimeglumine]?
A: distance from implant's exterior at which observable enhancement begins [2]: 2-5 mm; thickness of band of observable enhancement [2]: approximately 1 mm; loaded Magnevist released [3]: 85%

Q: With Immunoglobulin G as the molecule, how does the hydrodynamic radius [4] read?
A: 6.4 nm

Q: What about the hydrodynamic radius ([4]; listed as IgG isotype immunoproteins) of the same molecule?
A: approximately 6.4 nm
